According to the NIST ThermoML archive (doi:10.1016/j.jct.2015.07.005):
“And” between values parts separate entries of the source, which are not always exact repeats. Identical values can stand only once.

Conditions: Gas, Frequency=0.005 MHz, Spherical cavity resonance method

CC [ethane]
Conditions	speed of sound
280.01 K, 500.43 kPa	294.64 m/s and 294.65 m/s and 294.64 m/s
280.02 K, 500.43 kPa	294.65 m/s and 294.65 m/s
280.02 K, 500.44 kPa	294.65 m/s
319.55 K, 463.5 kPa	316.22 m/s
319.55 K, 463.51 kPa	316.22 m/s
319.95 K, 464.08 kPa	316.4 m/s
319.95 K, 464.09 kPa	316.4 m/s
324.99 K, 479.74 kPa	318.64 m/s
324.99 K, 479.75 kPa	318.65 m/s
325 K, 479.75 kPa	318.65 m/s and 318.65 m/s
325 K, 479.76 kPa	318.65 m/s
339.37 K, 492.93 kPa	325.4 m/s
339.89 K, 493.66 kPa	325.64 m/s
359.27 K, 522.1 kPa	334.3 m/s
359.27 K, 522.11 kPa	334.3 m/s
359.85 K, 523.03 kPa	334.57 m/s and 334.57 m/s
365 K, 479.42 kPa	337.34 m/s and 337.34 m/s
365.01 K, 479.42 kPa	337.35 m/s and 337.35 m/s
365.01 K, 479.43 kPa	337.34 m/s and 337.35 m/s
379.19 K, 551.11 kPa	342.95 m/s
379.76 K, 551.9 kPa	343.19 m/s
379.77 K, 551.9 kPa	343.19 m/s
399.22 K, 579.97 kPa	351.41 m/s
399.8 K, 580.93 kPa	351.69 m/s and 351.69 m/s
404.98 K, 531.39 kPa	354.23 m/s
404.98 K, 531.4 kPa	354.23 m/s
404.98 K, 531.41 kPa	354.22 m/s
419.45 K, 608.87 kPa	359.75 m/s
419.46 K, 608.88 kPa	359.76 m/s
419.91 K, 609.51 kPa	359.94 m/s
419.92 K, 609.52 kPa	359.95 m/s
444.98 K, 496.44 kPa	370.72 m/s
444.98 K, 496.45 kPa	370.72 m/s and 370.72 m/s and 370.72 m/s
444.99 K, 496.45 kPa	370.72 m/s
484.95 K, 497.52 kPa	386.13 m/s
484.95 K, 497.53 kPa	386.13 m/s
484.95 K, 497.54 kPa	386.13 m/s
484.95 K, 497.55 kPa	386.14 m/s
484.95 K, 497.56 kPa	386.14 m/s
484.96 K, 497.55 kPa	386.14 m/s and 386.14 m/s
484.96 K, 539.51 kPa	386 m/s
484.96 K, 539.52 kPa	386 m/s and 386 m/s
